Laboratory results reported in PMC9286623.

Assay: head-to-tail macrolactamisation of side-chain-protected linear peptides (crude from 2-ClTrt resin, TFE cleavage); DEPBT (2-2.5 equiv), NEt3 (10-12 equiv), 24 h; AcOH quench, prep HPLC
Settings: MeCN with <1-10% DMSO (3i: 5% DMF in MeCN), 2.0 mM, 25.0 °C

## CC[C@H](C)[C@@H]1NC(=O)[C@H](COC(C)(C)C)NC(=O)[C@H](CCCCNC(=O)OC(C)(C)C)NC(=O)[C@H](Cc2ccccc2)NC(=O)[C@@H]2CCCN2C(=O)[C@H](CCCCNC(=O)OC(C)(C)C)NC(=O)[C@H](CSC(c2ccccc2)(c2ccccc2)c2ccccc2)NC(=O)[C@H](CCCCNC(=O)OC(C)(C)C)NC1=O
From CC[C@H](C)[C@H](NC(=O)[C@H](COC(C)(C)C)NC(=O)[C@H](CCCCNC(=O)OC(C)(C)C)NC(=O)[C@H](Cc1ccccc1)NC(=O)[C@@H]1CCCN1C(=O)[C@H](CCCCNC(=O)OC(C)(C)C)NC(=O)[C@H](CSC(c1ccccc1)(c1ccccc1)c1ccccc1)NC(=O)[C@@H](N)CCCCNC(=O)OC(C)(C)C)C(=O)O, 24-membered ring, 24.0 h
  ring closure, isolated yield: 22%

## CC[C@H](C)[C@@H]1NC(=O)[C@H](CSC(c2ccccc2)(c2ccccc2)c2ccccc2)NC(=O)[C@@H]2CCCN2C(=O)[C@H](CCCCNC(=O)OC(C)(C)C)NC(=O)[C@H](COC(C)(C)C)NC(=O)[C@H](CCCCNC(=O)OC(C)(C)C)NC(=O)[C@H](CCCCNC(=O)OC(C)(C)C)NC(=O)[C@H](Cc2ccccc2)NC1=O
From CC[C@H](C)[C@H](NC(=O)[C@H](CSC(c1ccccc1)(c1ccccc1)c1ccccc1)NC(=O)[C@@H]1CCCN1C(=O)[C@H](CCCCNC(=O)OC(C)(C)C)NC(=O)[C@H](COC(C)(C)C)NC(=O)[C@@H](N)CCCCNC(=O)OC(C)(C)C)C(=O)N[C@@H](Cc1ccccc1)C(=O)N[C@@H](CCCCNC(=O)OC(C)(C)C)C(=O)O, 24-membered ring, 24.0 h
  ring closure, isolated yield: 36%

## Cc1c(C)c(S(=O)(=O)NC(=N)NCCC[C@@H]2NC(=O)[C@H](C)NC(=O)[C@H](Cc3cn(C(=O)OC(C)(C)C)c4ccccc34)NC(=O)[C@H]([C@@H](C)OC(C)(C)C)NC(=O)[C@H](C)NC2=O)c(C)c2c1OC(C)(C)C2 [H-Arg(Pbf)-Ala-Thr(tBu)-Trp(Boc)-Ala-OH]
From Cc1c(C)c(S(=O)(=O)NC(=N)NCCC[C@H](N)C(=O)N[C@@H](C)C(=O)N[C@H](C(=O)N[C@@H](Cc2cn(C(=O)OC(C)(C)C)c3ccccc23)C(=O)N[C@@H](C)C(=O)O)[C@@H](C)OC(C)(C)C)c(C)c2c1OC(C)(C)C2, 15-membered ring, 24.0 h
  ring closure, isolated yield: 27%

## Cc1c(C)c(S(=O)(=O)NC(=N)NCCC[C@@H]2NC(=O)[C@H](C)NC(=O)[C@H](C)NC(=O)[C@H]([C@@H](C)OC(C)(C)C)NC(=O)[C@H](CSC(c3ccccc3)(c3ccccc3)c3ccccc3)NC2=O)c(C)c2c1OC(C)(C)C2 [H-Arg(Pbf)-Cys(Trt)-Thr(tBu)-Ala-Ala-OH]
From Cc1c(C)c(S(=O)(=O)NC(=N)NCCC[C@H](N)C(=O)N[C@@H](CSC(c2ccccc2)(c2ccccc2)c2ccccc2)C(=O)N[C@H](C(=O)N[C@@H](C)C(=O)N[C@@H](C)C(=O)O)[C@@H](C)OC(C)(C)C)c(C)c2c1OC(C)(C)C2, 15-membered ring, 24.0 h
  ring closure, isolated yield: 21%

## Cc1c(C)c(S(=O)(=O)NC(=N)NCCC[C@@H]2NC(=O)[C@H](C)NC(=O)[C@H](CSC(c3ccccc3)(c3ccccc3)c3ccccc3)NC(=O)[C@H]([C@@H](C)OC(C)(C)C)NC(=O)[C@H](CSC(c3ccccc3)(c3ccccc3)c3ccccc3)NC2=O)c(C)c2c1OC(C)(C)C2 [H-Arg(Pbf)-Cys(Trt)-Thr(tBu)-Cys(Trt)-Ala-OH]
From Cc1c(C)c(S(=O)(=O)NC(=N)NCCC[C@H](N)C(=O)N[C@@H](CSC(c2ccccc2)(c2ccccc2)c2ccccc2)C(=O)N[C@H](C(=O)N[C@@H](CSC(c2ccccc2)(c2ccccc2)c2ccccc2)C(=O)N[C@@H](C)C(=O)O)[C@@H](C)OC(C)(C)C)c(C)c2c1OC(C)(C)C2, 15-membered ring, 24.0 h
  ring closure, isolated yield: 16%

## Cc1c(C)c(S(=O)(=O)NC(=N)NCCC[C@@H]2NC(=O)[C@H](C)NC(=O)[C@H](Cc3cn(C(=O)OC(C)(C)C)c4ccccc34)NC(=O)[C@H]([C@@H](C)OC(C)(C)C)NC(=O)[C@H](CSC(c3ccccc3)(c3ccccc3)c3ccccc3)NC2=O)c(C)c2c1OC(C)(C)C2 [H-Arg(Pbf)-Cys(Trt)-Thr(tBu)-Trp(Boc)-Ala-OH]
From Cc1c(C)c(S(=O)(=O)NC(=N)NCCC[C@H](N)C(=O)N[C@@H](CSC(c2ccccc2)(c2ccccc2)c2ccccc2)C(=O)N[C@H](C(=O)N[C@@H](Cc2cn(C(=O)OC(C)(C)C)c3ccccc23)C(=O)N[C@@H](C)C(=O)O)[C@@H](C)OC(C)(C)C)c(C)c2c1OC(C)(C)C2, 15-membered ring, 24.0 h
  ring closure, isolated yield: 16%

## Cc1c(C)c(S(=O)(=O)NC(=N)NCCC[C@@H]2NC(=O)[C@H](C)NC(=O)[C@H](Cc3cn(C(=O)OC(C)(C)C)c4ccccc34)NC(=O)[C@H]([C@@H](C)OC(C)(C)C)NC(=O)[C@@H]3CCCN3C2=O)c(C)c2c1OC(C)(C)C2 [H-Arg(Pbf)-Pro-Thr(tBu)-Trp(Boc)-Ala-OH]
From Cc1c(C)c(S(=O)(=O)NC(=N)NCCC[C@H](N)C(=O)N2CCC[C@H]2C(=O)N[C@H](C(=O)N[C@@H](Cc2cn(C(=O)OC(C)(C)C)c3ccccc23)C(=O)N[C@@H](C)C(=O)O)[C@@H](C)OC(C)(C)C)c(C)c2c1OC(C)(C)C2, 15-membered ring, 24.0 h
  ring closure, isolated yield: 0%

## CC[C@H](C)[C@@H]1NC(=O)[C@@H]2CCCN2C(=O)[C@H](CCCCNC(=O)OC(C)(C)C)NC(=O)[C@H](CSC(c2ccccc2)(c2ccccc2)c2ccccc2)NC(=O)[C@H](Cc2cn(C(=O)OC(C)(C)C)c3ccccc23)NC(=O)[C@H]([C@@H](C)OC(C)(C)C)NC(=O)[C@@H]2CCCN2C1=O [H-Cys(Trt)-Lys(Boc)-Pro-Ile-Pro-Thr(tBu)-Trp(Boc)-OH]
From CC[C@H](C)[C@H](NC(=O)[C@@H]1CCCN1C(=O)[C@H](CCCCNC(=O)OC(C)(C)C)NC(=O)[C@@H](N)CSC(c1ccccc1)(c1ccccc1)c1ccccc1)C(=O)N1CCC[C@H]1C(=O)N[C@H](C(=O)N[C@@H](Cc1cn(C(=O)OC(C)(C)C)c2ccccc12)C(=O)O)[C@@H](C)OC(C)(C)C, 21-membered ring
  ring closure, isolated yield: 0%

## CC(C)C[C@@H]1NC(=O)[C@H](CC(C)C)NC(=O)[C@H](CC(=O)NC(c2ccccc2)(c2ccccc2)c2ccccc2)NC(=O)[C@@H]2CCCN2C(=O)[C@@H]2CCCN2C(=O)[C@H](CSC(c2ccccc2)(c2ccccc2)c2ccccc2)NC(=O)[C@H](CC(C)C)NC(=O)[C@H](CCC(=O)OC(C)(C)C)NC1=O [H-Glu(OtBu)-Leu-Cys(Trt)-Pro-Pro-Asn(Trt)-Leu-Leu-OH]
From CC(C)C[C@H](NC(=O)[C@H](CC(C)C)NC(=O)[C@H](CC(=O)NC(c1ccccc1)(c1ccccc1)c1ccccc1)NC(=O)[C@@H]1CCCN1C(=O)[C@@H]1CCCN1C(=O)[C@H](CSC(c1ccccc1)(c1ccccc1)c1ccccc1)NC(=O)[C@H](CC(C)C)NC(=O)[C@@H](N)CCC(=O)OC(C)(C)C)C(=O)O, 24-membered ring, 24.0 h
  ring closure, isolated yield: 26%

## CC(C)C[C@@H]1NC(=O)[C@H](CSC(c2ccccc2)(c2ccccc2)c2ccccc2)NC(=O)[C@H](CC(C)C)NC(=O)[C@@H]2CCCN2C(=O)[C@H](CC(=O)NC(c2ccccc2)(c2ccccc2)c2ccccc2)NC(=O)[C@H](CC(C)C)NC(=O)[C@@H]2CCCN2C(=O)[C@H](CCC(=O)OC(C)(C)C)NC1=O [H-Leu-Glu(OtBu)-Pro-Leu-Asn(Trt)-Pro-Leu-Cys(Trt)-OH]
From CC(C)C[C@H](NC(=O)[C@@H]1CCCN1C(=O)[C@H](CC(=O)NC(c1ccccc1)(c1ccccc1)c1ccccc1)NC(=O)[C@H](CC(C)C)NC(=O)[C@@H]1CCCN1C(=O)[C@H](CCC(=O)OC(C)(C)C)NC(=O)[C@@H](N)CC(C)C)C(=O)N[C@@H](CSC(c1ccccc1)(c1ccccc1)c1ccccc1)C(=O)O, 24-membered ring, 24.0 h
  ring closure, isolated yield: 23%

## CC[C@H](C)[C@@H]1NC(=O)[C@@H]2CCCN2C(=O)[C@H](CCCCNC(=O)OC(C)(C)C)NC(=O)[C@H](CSC(c2ccccc2)(c2ccccc2)c2ccccc2)NC(=O)[C@H](Cc2cn(C(=O)OC(C)(C)C)c3ccccc23)NC(=O)[C@H]([C@@H](C)OC(C)(C)C)NC(=O)[C@@H]2CCCN2C1=O [H-Lys(Boc)-Pro-Ile-Pro-Thr(tBu)-Trp(Boc)-Cys(Trt)-OH]
From CC[C@H](C)[C@H](NC(=O)[C@@H]1CCCN1C(=O)[C@@H](N)CCCCNC(=O)OC(C)(C)C)C(=O)N1CCC[C@H]1C(=O)N[C@H](C(=O)N[C@@H](Cc1cn(C(=O)OC(C)(C)C)c2ccccc12)C(=O)N[C@@H](CSC(c1ccccc1)(c1ccccc1)c1ccccc1)C(=O)O)[C@@H](C)OC(C)(C)C, 21-membered ring
  ring closure, isolated yield: 0%

## CC[C@H](C)[C@@H]1NC(=O)[C@H](Cc2cn(C(=O)OC(C)(C)C)c3ccccc23)NC(=O)[C@@H]2CCCN2C(=O)[C@H](CSC(c2ccccc2)(c2ccccc2)c2ccccc2)NC(=O)[C@@H]2CCCN2C(=O)[C@H](CCCCNC(=O)OC(C)(C)C)NC(=O)[C@H]([C@@H](C)OC(C)(C)C)NC1=O [H-Thr(tBu)-Lys(Boc)-Pro-Cys(Trt)-Pro-Trp(Boc)-Ile-OH]
From CC[C@H](C)[C@H](NC(=O)[C@H](Cc1cn(C(=O)OC(C)(C)C)c2ccccc12)NC(=O)[C@@H]1CCCN1C(=O)[C@H](CSC(c1ccccc1)(c1ccccc1)c1ccccc1)NC(=O)[C@@H]1CCCN1C(=O)[C@H](CCCCNC(=O)OC(C)(C)C)NC(=O)[C@@H](N)[C@@H](C)OC(C)(C)C)C(=O)O, 21-membered ring, 24.0 h
  ring closure, isolated yield: 29%

## CC[C@H](C)[C@@H]1NC(=O)[C@@H]2CCCN2C(=O)[C@H](CCCCNC(=O)OC(C)(C)C)NC(=O)[C@H](CSC(c2ccccc2)(c2ccccc2)c2ccccc2)NC(=O)[C@H](Cc2cn(C(=O)OC(C)(C)C)c3ccccc23)NC(=O)[C@H]([C@@H](C)OC(C)(C)C)NC(=O)[C@@H]2CCCN2C1=O [H-Trp(Boc)-Cys(Trt)-Lys(Boc)-Pro-Ile-Pro-Thr(tBu)-OH]
From CC[C@H](C)[C@H](NC(=O)[C@@H]1CCCN1C(=O)[C@H](CCCCNC(=O)OC(C)(C)C)NC(=O)[C@H](CSC(c1ccccc1)(c1ccccc1)c1ccccc1)NC(=O)[C@@H](N)Cc1cn(C(=O)OC(C)(C)C)c2ccccc12)C(=O)N1CCC[C@H]1C(=O)N[C@H](C(=O)O)[C@@H](C)OC(C)(C)C, 21-membered ring, 24.0 h
  ring closure, isolated yield: 12%
